Legend:
Assay type in all cases: cell-based
[1] = system: coxsackie B5virus; experiment: Antiviral CPE assay in mammalian cell culture; conditions: read-out: inhibition capacity (IC50) B5
[2] = system: coxsackie B2 virus; experiment: Antiviral CPE assay in mammalian cell culture; conditions: read-out: inhibition capacity (IC50) B2
[3] = system: polio virus Sabin 1; experiment: organism not typed; conditions: read-out: inhibition capacity (IC50) Polio 1
[4] = system: Enterovirus 6; experiment: Antiviral CPE assay in mammalian cell culture; conditions: prevention of viral CPE, read-out: inhibition capacity (IC50) EV6
[5] = system: coxsackie B3 virus; experiment: Antiviral CPE assay in mammalian cell culture; conditions: Enterovirus B, B3, read-out: inhibition capacity (IC50) B3
[6] = system: Enterovirus 30; experiment: Antiviral CPE assay in mammalian cell culture; conditions: Enterovirus, read-out: inhibition capacity (IC50) EV30
[7] = system: Enterovirus 71; experiment: Antiviral CPE assay in mammalian cell culture; conditions: Enterovirus A, EV71, prevention of viral CPE, read-out: inhibition capacity (IC50) EV71
[8] = system: coxsackie B1 virus; experiment: Antiviral CPE assay in mammalian cell culture; conditions: read-out: inhibition capacity (IC50) Bl
[9] = system: coxsackie B 4 virus; experiment: Antiviral CPE assay in mammalian cell culture; conditions: Enterovirus B, B4, read-out: inhibition capacity (IC50) B4
[10] = system: Enterovirus 68; experiment: Antiviral CPE assay in mammalian cell culture; conditions: Enterovirus D, EV68, read-out: inhibition capacity (IC50) EV68

Row | Structure (SMILES) | IC50 [1] [nM] | IC50 [2] [nM] | IC50 [3] [nM] | IC50 [4] [nM] | IC50 [5] [nM] | IC50 [6] [nM] | IC50 [7] [nM] | IC50 [8] [nM] | IC50 [9] [nM] | IC50 [10] [nM]
1 | COc1ccc(-c2c(C)nn3c(NCc4ccc(F)cc4)nc(C)nc23)cc1OC [Example 1, 8-(3,4-dimethoxyphenyl)-N-[(4-fluorophenyl)methyl]-2,7-dimethyl-pyrazolo[1,5-a][1,3,5]triazin-4-amine] | < 100 | < 10 | < 10 | < 1000 | < 1000 | < 100 | < 10 | < 100 |  | 
2 | COc1ccc(-c2c(C)nn3c(NCc4ccc(C(F)(F)F)cc4)nc(C)nc23)cc1OC [Example 2, 8-(3,4-dimethoxyphenyl)-2,7-dimethyl-N-[[4-(trifluoromethyl)phenyl]methyl]pyrazolo[1,5-a][1,3,5]triazin-4-amine] | < 100 | < 100 | < 100 | < 1000 | < 1000 | < 100 | < 1000 | < 100 | < 100 | < 1000
3 | COc1ccc(-c2c(C)nn3c(NCc4ccc(C)cc4)nc(C)nc23)cc1OC [Example 3, 8-(3,4-dimethoxyphenyl)-2,7-dimethyl-N-(p-tolylmethyl)pyrazolo[1,5-a][1,3,5]triazin-4-amine] | < 100 | < 100 | < 100 | < 1000 | < 100 | < 100 | < 100 | < 100 | < 100 | < 100
4 | COc1ccc(-c2c(C)nn3c(NCc4ccc(C(C)C)cc4)nc(C)nc23)cc1OC [Example 4, 8-(3,4-dimethoxyphenyl)-N-[(4-isopropylphenyl)methyl]-2,7-dimethyl-pyrazolo[1,5-a][1,3,5]triazin-4-amine] | < 1000 | < 1000 | < 1000 | < 1000 | < 1000 | < 1000 | < 1000 | < 1000 | < 1000 | < 1000
5 | COc1ccc(-c2c(C)nn3c(NCc4ccccn4)nc(C)nc23)cc1OC [Example 5, 8-(3,4-dimethoxyphenyl)-2,7-dimethyl-N-(2-pyridylmethyl)pyrazolo[1,5-a][1,3,5]triazin-4-amine] | < 1000 | < 100 | < 100 | < 1000 | < 1000 | < 1000 | < 1000 | < 100 | < 1000 | < 1000
6 | COc1ccc(-c2c(C)nn3c(NCCc4ccc(Cl)cc4)nc(C)nc23)cc1OC [Example 7, N-[2-(4-chlorophenyl)ethyl]-8-(3,4-dimethoxyphenyl)-2,7-dimethyl-pyrazolo[1,5-a][1,3,5]triazin-4-amine] | < 1000 | < 1000 | < 1000 | < 1000 | < 1000 | < 1000 | < 1000 | < 1000 | < 1000 | < 1000
7 | COc1ccc(-c2c(C)nn3c(NCc4ccc(Cl)cc4)nc(C)nc23)cc1OC [Example 8, N-[(4-chlorophenyl)methyl]-8-(3,4-dimethoxyphenyl)-2,7-dimethyl-pyrazolo[1,5-a][1,3,5]triazin-4-amine] | < 1000 | < 100 | < 100 | < 1000 | < 100 | < 100 | < 1000 | < 100 | < 100 | < 100
8 | COc1ccc(-c2c(C)nn3c(NCc4ccc(NC(C)=O)cc4)nc(C)nc23)cc1OC [Example 9, N-[4-[[[8-(3,4-dimethoxyphenyl)-2,7-dimethyl-pyrazolo[1,5-a][1,3,5]triazin-4-yl]amino]methyl]phenyl]acetamide] | < 100 | < 100 | < 10 | < 100 | < 100 | < 100 | < 100 | < 1000 | < 100 | < 100
9 | COc1ccc(CNc2nc(C)nc3c(-c4ccc(OC)c(OC)c4)c(C)nn23)cc1 [Example 10, 8-(3,4-dimethoxyphenyl)-N-[(4-methoxyphenyl)methyl]-2,7-dimethyl-pyrazolo[1,5-a][1,3,5]triazin-4-amine] | < 100 | < 100 | < 100 | < 1000 | < 1000 | < 100 | < 1000 | < 100 | < 100 | < 100
10 | COc1ccc(-c2c(C)nn3c(NCc4cccc(S(C)(=O)=O)c4)nc(C)nc23)cc1OC [Example 11, 8-(3,4-dimethoxyphenyl)-2,7-dimethyl-N-[(3-methylsulfonylphenyl)methyl]pyrazolo[1,5-a][1,3,5]triazin-4-amine] | < 10 | < 10 | < 10 | < 100 | < 10 | < 10 | < 100 | < 10 | < 10 | < 100
11 | COc1ccc(-c2c(C)nn3c(NCc4cc[n+]([O-])cc4)nc(C)nc23)cc1OC [Example 12, 8-(3,4-dimethoxyphenyl)-2,7-dimethyl-N-[(1-oxidopyridin-1-ium-4-yl)methyl]pyrazolo[1,5-a][1,3,5]triazin-4-amine] | < 1000 | < 1000 | < 1000 |  | < 1000 | < 1000 | < 1000 | < 1000 | < 1000 | < 1000
12 | COc1ccc(CNc2nc(C)nc3c(-c4ccc(OC)c(OC)c4)c(C)nn23)cn1 [Example 13, 8-(3,4-dimethoxyphenyl)-N-[(6-methoxy-3-pyridyl)methyl]-2,7-dimethyl-pyrazolo[1,5-a][1,3,5]triazin-4-amine] | < 100 | < 100 | < 10 |  | < 100 | < 10 | < 100 | < 10 | < 100 | < 100
13 | COc1ccc(-c2c(C)nn3c(NCC4CCCCC4)nc(C)nc23)cc1OC [Example 15, N-(cyclohexylmethyl)-8-(3,4-dimethoxyphenyl)-2,7-dimethyl-pyrazolo[1,5-a][1,3,5]triazin-4-amine] | < 1000 | < 1000 | < 1000 | < 1000 | < 1000 | < 1000 | < 1000 | < 1000 | < 1000 | < 1000
14 | COc1ccc(-c2c(C)nn3c(NCc4ccc5c(c4)OCO5)nc(C)nc23)cc1OC [Example 16, N-(1,3-benzodioxol-5-ylmethyl)-8-(3,4-dimethoxyphenyl)-2,7-dimethyl-pyrazolo[1,5-a][1,3,5]triazin-4-amine] | < 100 | < 100 | < 100 | < 1000 | < 100 | < 100 | < 100 | < 100 | < 10 | < 100
15 | COc1ccc(-c2c(C)nn3c(NCc4ccc(O)cc4)nc(C)nc23)cc1OC [Example 17, 4-[[[8-(3,4-dimethoxyphenyl)-2,7-dimethyl-pyrazolo[1,5-a][1,3,5]triazin-4-yl]amino]methyl]phenol] | < 10 | < 10 | < 10 | < 100 | < 100 | < 100 | < 10 | < 10 | < 100 | < 100
16 | COc1ccc(-c2c(C)nn3c(NCC4CCCO4)nc(C)nc23)cc1OC (stereo not drawn) [Example 18, 8-(3,4-dimethoxyphenyl)-2,7-dimethyl-N-(tetrahydrofuran-2-ylmethyl)pyrazolo[1,5-a][1,3,5]triazin-4-amine] | < 1000 | < 1000 | < 1000 | < 1000 | < 1000 | < 1000 | < 1000 | < 1000 | < 1000 | < 1000
17 | COc1ccc(-c2c(C)nn3c(NCc4ccc(NS(C)(=O)=O)cc4)nc(C)nc23)cc1OC [Example 19, N-[4-[[[8-(3,4-dimethoxyphenyl)-2,7-dimethyl-pyrazolo[1,5-a][1,3,5]triazin-4-yl]amino]methyl]phenyl]methanesulfonamide] | < 1000 | < 100 | < 100 | < 1000 | < 100 | < 100 | < 10 | < 100 | < 10 | < 100
18 | COc1ccc(-c2c(C)nn3c(NCc4ccccc4)nc(C)nc23)cc1OC [Example 20, N-benzyl-8-(3,4-dimethoxyphenyl)-2,7-dimethyl-pyrazolo[1,5-a][1,3,5]triazin-4-amine] | < 100 | < 100 | < 100 | < 100 | < 100 | < 100 | < 100 | < 100 | < 10 | < 100
19 | COc1ccc(-c2c(C)nn3c(NCc4cccs4)nc(C)nc23)cc1OC [Example 21, 8-(3,4-dimethoxyphenyl)-2,7-dimethyl-N-(2-thienylmethyl)pyrazolo[1,5-a][1,3,5]triazin-4-amine] | < 100 | < 10 | < 100 | < 100 | < 100 | < 100 | < 100 | < 10 | < 100 | < 100

Source: patent publication US10407429B2, “Pyrazolo[1,5-a]triazin-4-amine derivatives useful in therapy” (Curovir AB, priority 2015, dated 2019)
